The results in this text go back to ChEMBL document CHEMBL1201862, “PubChem BioAssay data set” (2004).

The structures appear in SMILES notation. Active and inactive are the calls of the source.

The test system of one assay is H4. Description: Luminescence Cell-Based Dose Response HTS to Identify Activators of 5'UTR Stem-Loop Driven Prion Protein mRNA Translation in H4 Neuroglioblastoma Cells. [Related pubchem assays: 1829 (Project Summary), 1814 (Primary HTS)]. It is filed as functional. The note with it: Homo sapiens.
Assay [1] is described as follows: Luminescence Cell-Based Dose Response HTS to Identify Activators of Luciferase Translation or Activity in H4 […] Cells. [Related pubchem assays: 1829 (Project Summary), 1814 (Primary HTS)]. It is filed as functional.
Assay [2] can be described thus: Luminescence Cell-Based Dose Confirmation HTS to Identify Activators of 5'UTR Stem-Loop Driven Alpha-Synuclein mRNA Translation in H4 Neuroglioblastoma Cells. [Related pubchem assays: 1829 (Project Summary), 1814 (Primary HTS)]. The assay is classed as functional.
Assay [3] is described as follows: HIV-1 AD8 envelope cell-cell fusion blockers – cherry-pick, dose response (AID 652062).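 Also: luciferase signal from cell-cell fusion driven by HIV-1 clade B AD8 Env; potency is for inhibitors of fusion seen as a drop in luminescence.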 It is filed as functional, cell-based.
The nature of assay [4]: blockers of HIV-1 envelope-mediated cell-cell fusion – cherry-pick, dose response (AID 652057). It is filed as functional, cell-based.
Assay [5] in a line: P. falciparum Dd2 growth inhibitors, dose response, SYBR Green, cherry-picked samples (AID 1159567). The assay is classed as functional, cell-based.
The target of assay [6] is T1, Corticotropin-releasing factor receptor 2/Corticotropin-releasing factor-binding protein (Homo sapiens, UniProt P24387+Q13324).
T1 sequence (Q13324 whole entry): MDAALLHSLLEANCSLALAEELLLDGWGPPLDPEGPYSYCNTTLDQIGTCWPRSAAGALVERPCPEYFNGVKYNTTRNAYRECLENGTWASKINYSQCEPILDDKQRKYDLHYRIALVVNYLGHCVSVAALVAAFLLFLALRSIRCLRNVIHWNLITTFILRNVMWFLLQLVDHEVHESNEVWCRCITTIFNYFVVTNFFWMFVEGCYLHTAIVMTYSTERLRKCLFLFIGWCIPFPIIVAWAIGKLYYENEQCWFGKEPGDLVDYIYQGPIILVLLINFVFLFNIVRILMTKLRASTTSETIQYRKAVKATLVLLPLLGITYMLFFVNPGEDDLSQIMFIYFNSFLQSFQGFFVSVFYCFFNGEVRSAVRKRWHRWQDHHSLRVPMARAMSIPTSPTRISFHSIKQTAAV
T1 sequence (P24387 whole entry): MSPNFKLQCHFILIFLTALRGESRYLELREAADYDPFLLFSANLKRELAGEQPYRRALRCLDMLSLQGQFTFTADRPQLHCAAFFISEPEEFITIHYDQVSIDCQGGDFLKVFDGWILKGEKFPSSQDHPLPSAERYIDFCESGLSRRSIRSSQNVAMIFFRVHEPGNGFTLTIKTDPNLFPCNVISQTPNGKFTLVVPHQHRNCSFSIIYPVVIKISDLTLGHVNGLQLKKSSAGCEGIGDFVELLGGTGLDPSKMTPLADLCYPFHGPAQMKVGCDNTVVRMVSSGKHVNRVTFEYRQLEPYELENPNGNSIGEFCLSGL
Description: Dose Response confirmation of uHTS hits for small molecule antagonists of the CRF-binding protein and CRF-R2 receptor complex. The note with it: read-out: IC50_Mean. The assay is classed as functional.

Assay [7] deals with FAD-linked sulfhydryl oxidase ALR (Homo sapiens, UniProt P55789). Description: ALR-catalysed DTT oxidation blockers – biochemical, H2O2 detection, luminescence, cherry-pick, dose response (AID 493248).
A short description of assay [8]: blockers of CRF-binding protein–CRF-R2 complex – cell-based, uHTS hits, 384-well, dose response (AID 651639). The assay is classed as functional, Homo sapiens. Conditions: read-out: IC50_Mean.
Assay [9] addresses T1, Corticotropin-releasing factor receptor 2/Corticotropin-releasing factor-binding protein. Description: activators of CRF receptor 2 with binding protein – uHTS hits, confirmation (AID 602473). It is filed as functional. The note with it: read-out: EC50_Mean.
Assay [10] is described as follows: luciferase reporter signal suppression in cells – H4 neuroglioma cells, luminescence, dose response (AID 1990). The assay is classed as functional, cell-based. In general terms: Reporter assays use an easily measured gene product as a stand-in for the process of interest.
Assay [11] in a line: alpha-synuclein stem-loop luciferase translation blockers – H4 neuroglioma cells, luminescence, confirmation (AID 1988). The assay is classed as functional, cell-based.
Assay [12] has as its target T2, Microphthalmia-associated transcription factor (Homo sapiens, UniProt O75030).
T2 sequence (O75030 whole entry): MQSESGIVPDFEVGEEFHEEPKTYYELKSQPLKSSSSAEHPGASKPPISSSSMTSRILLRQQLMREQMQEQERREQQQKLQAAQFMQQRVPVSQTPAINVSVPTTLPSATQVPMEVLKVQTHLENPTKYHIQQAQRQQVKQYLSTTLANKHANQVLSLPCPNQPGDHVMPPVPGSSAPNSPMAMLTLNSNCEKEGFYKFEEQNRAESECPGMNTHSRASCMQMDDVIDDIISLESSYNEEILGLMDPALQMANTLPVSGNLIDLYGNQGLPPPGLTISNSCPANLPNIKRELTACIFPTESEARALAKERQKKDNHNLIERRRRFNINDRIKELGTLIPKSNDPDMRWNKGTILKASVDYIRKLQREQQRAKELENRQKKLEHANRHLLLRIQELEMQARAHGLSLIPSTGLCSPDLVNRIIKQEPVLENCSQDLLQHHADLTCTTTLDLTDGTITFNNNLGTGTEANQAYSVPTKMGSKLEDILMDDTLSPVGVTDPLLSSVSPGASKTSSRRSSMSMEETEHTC
Description: reducers of TRPM1 reporter luminescence, concentration series – cell-based, SK-MEL-5, cherry-picked, set 3, MITF inhibitor project, dose response (AID 493073).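 Also: SK-MEL-5 melanoma cells with luciferase driven by the MITF target TRPM1 promoter.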 The assay is classed as functional.

The nature of assay [13]: Luminescence Cell-Based Dose Response HTS to Identify Inhibitors of 5'UTR Stem-Loop Driven Prion Protein mRNA Translation in H4 Neuroglioblastoma Cells. [Related pubchem assays: 1827 (Project Summary), 1813 (Primary HTS)]. It is filed as functional.

Sequence of FAD-linked sulfhydryl oxidase ALR (P55789 whole entry): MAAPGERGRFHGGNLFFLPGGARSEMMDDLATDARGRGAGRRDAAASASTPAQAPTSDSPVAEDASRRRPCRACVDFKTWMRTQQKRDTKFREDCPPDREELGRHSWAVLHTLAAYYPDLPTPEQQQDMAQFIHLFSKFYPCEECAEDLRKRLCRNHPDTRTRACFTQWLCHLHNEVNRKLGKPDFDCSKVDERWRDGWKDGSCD

As to `CC(CNC(=O)c1ccc(OC2CCN(Cc3ccccn3)CC2)cc1)c1ccccc1` (configuration not stated), the EC50 with H4 was 35.6 µM (active); in [1], 53.8 µM (active); in assay [2] it was 18.2 µM (active).

The AC50 is the concentration at which the activity in the assay is half-maximal. For `COc1ccc(-c2ccc3c(c2)[C@@H]2[C@@H](CCN2C(=O)NC2CCCC2)[C@H](CO)N3C)cc1`, the AC50 in assay [3] is 2.83 µM (active); in assay [4], 26.5 µM (active).

As to `CCCC(=O)Nc1ccc2c(c1)OC[C@@H](C)N(Cc1cc(-c3ccccc3)on1)C[C@@H](C)[C@H](OC)CN(C)C2=O`, the AC50 in assay [5] was 5.19 µM (active).

Turning to `COc1ccc(N2C(=O)CSC2c2ccc([N+](=O)[O-])cc2)cc1` (configuration not stated), the IC50 in [6] was 46.8 µM (active); in [8], 6.91 µM (active). For the same molecule, in assay [7], the concentration at half-maximal activity (AC50) is 5.9 µM (active). Moreover, in assay [9], the EC50 was > 53 µM (inactive).

Regarding `O=C1NC(=S)N(C2CC2)C(=O)/C1=C/Nc1ccc2c(c1)OCO2`, the results for the EC50 (with H4; in assay [1]; in [2]) were 18.7 µM (active), 13.3 µM (active) and 95.4 µM (active), respectively.

For `COCC(=O)N1CC2(C1)CN(Cc1cccc(Cl)c1)[C@@H](CO)c1[nH]c3cc(OC)ccc3c12`, the concentration at half-maximal activity (AC50) in assay [5] is 12.9 µM (active).

In the case of `CS(=O)(=O)N1[C@H](C#N)[C@H](c2ccccc2-c2ccc(F)cc2)[C@H]1CO`, the AC50 in assay [5] was 16.6 µM (active).

With `C[C@@H]1CN([C@@H](C)CO)C(=O)c2cc(NC(=O)Nc3ccc4c(c3)OCO4)ccc2O[C@H]1CN(C)C(=O)Nc1cccc2ccccc12`, the AC50 in assay [5] is 4.89 µM (active).

With `NC(=NOC(=O)Nc1ccccc1)c1ncc([N+](=O)[O-])s1`, the EC50 (in the assay on H4; in assay [1]; in [2]) was > 120 µM (not active) each time.

For `O=C(NCC1CCCO1)c1cc2c(s1)CCC2` (configuration not stated), the EC50 is 50.9 µM (active) in the assay with H4, 18.7 µM (active) in [1] and 20.3 µM (active) in [2].

Consider `C[C@@H]1CC=C[C@H]2[C@H]1C(=O)N(Cc1ccccc1)[C@H]2c1ccc(-c2cc3ccccc3s2)cc1F`, for which the EC50 in the assay with H4 was 0.11 µM (active); in [1] it was 61.8 µM (active); in assay [2] it was 0.251 µM (active).

Turning to `O=C(NCCc1ccc(F)cc1)c1[nH]nc2ccccc12`, the figures for the EC50 (in the assay with H4; in assay [1]; in assay [2]) were 24.5 µM (active), 42 µM (active) and 17.8 µM (active), respectively.

Take `CCN(CC)C(=O)[C@H]1CC(CC(=O)NC/C=C(\C)CCC=C(C)C)C(=O)N2CCc3c([nH]c4ccc(OC)cc34)[C@]12C` (some centres not stated): the IC50 in [6] was 3.54 µM (active); in assay [8] it was 1.33 µM (active). Besides, the EC50 in [9] is > 53 µM (inactive).

In the case of `C=CC[n+]1c(-c2ccc(C)cc2)csc1Nc1ccc(NC(C)=O)cc1`, the EC50 is 2.34 µM (active) in assay [10], 0.246 µM (active) in [11] and 0.238 µM (active) in [13]. In addition, the AC50 in [12] is 1.57 µM (active).

In the case of `COc1cc2nc3c(O)n4c(nc-3c2cc1OC)SCCC4`, the EC50 in the assay on H4 was 24.5 µM (active); in assay [1], 3.61 µM (active); in assay [2] it was > 120 µM (not active); in assay [9], > 53 µM (inactive). Also, the IC50 in assay [6] was 3.83 µM (active); in assay [8], > 20 µM (inactive).

Consider `CN1C(=O)c2cc(NC(=O)c3cscn3)ccc2OC[C@@H]2O[C@@H](CC(=O)NCc3ccc(Cl)c(Cl)c3)CC[C@H]21`, for which the results for the AC50 in assay [3] and in assay [4] were 3.19 µM (active) and 48.6 µM (active), respectively.

With `CCCNc1ccc(C(=O)OCC)cc1[N+](=O)[O-]`, the IC50 was 17.6 µM (active) in assay [6] and > 20 µM (inactive) in assay [8]. For the same molecule, the EC50 in [9] was > 53 µM (inactive).

For `C[C@H]1CN([C@@H](C)CO)C(=O)c2c(c3ccccc3n2C)-c2ccccc2CO[C@H]1CN(C)S(=O)(=O)c1ccccc1C#N`, the AC50 in assay [5] is 5 µM (active).
